{"source": "patent US8729107B2", "about": "“Pyridines for treating injured mammalian nerve tissue” (Purdue Research Foundation, priority 2002, dated 2014)", "key": {"[1]": {"system": "injured guinea pig spinal cord white matter", "details": "for increase in the amplitude of the recovered CAP: pre-drug recovered CAP normalized to 100%; for CAP amplitude after removal of the drug and wash: FIG. 8 electrical records, after washout; for CAP relative to pre-drug level: at the concentrations studied; for concentration producing recovery of CAP conduction (effective/working concentration): drug added to bathing medium of central chamber"}, "[2]": {"system": "guinea pigs with compression injury to the mid-thoracic spinal cord", "type": "in vivo", "details": "for failures to respond: by 4 hours after gavage; for Mean recovered EP (area beneath recovered EP normalized to pre-injury): gavage at 1 week post injury, Table 1; for tolerability of gavage: oral insertion in sedated guinea pigs; for effective dosage producing improvement in the electrophysiological record: gavage", "from_the_text": "“Somatosensory evoked potential testing (SSEP)” is a means of measuring ascending nerve impulse “traffic” in a “whole” animal. […] These volleys of evoked potentials are initiated by electrical stimulation of the tibial nerve of the hind leg of an animal, which induces ascending sensory volleys of nociceptive impulses to the contralateral sensory cortex of the brain in the intact animal. A severe spinal cord injury eliminates the ability of evoked potentials to cross the lesion and thus SSEPs are not recorded at the brain after lesioning. Quantitative evaluation of the recovery of SSEP conduction through the whole animal provides a more relevant indicator of the feasibility of these compounds to be useful in reversing behavioral loss after specific, localized, and standardized CNS injury. To eliminate the possibility that the failure to record SSEPs could be due to other factors, a control recording is carried out using the median nerve of the foreleg. Since this neural circuit is completely intact (that is—“above” the level of the spinal injury) normal SSEPs must be obtained after such “control” stimulation. FIG. 2 is a diagram of this testing protocol and provides examples of normal recordings in intact animals, the elimination of sensory impulses after a mid-thoracic spinal cord injury, and explains these issues in detail, as well as, emphasizing the importance of a median nerve control procedure.\nDuring live animal testing using guinea pigs, novel pyridine derivatives of the instant invention were administered through a gastric tube to large adult guinea pigs which had previously received a standardized compression injury to their mid-thoracic spinal cords. The ability of these compounds to restore conduction in this second technique was determined by a quantitative evaluation of SSEPs. The following protocols and routes of administration were employed.\nPrior to spinal cord injury, fully adult guinea pigs (Hardy strain, around 400 g) were lightly sedated with an intramuscular injection of Ketamine/Rompum and rendered immobile during the placement of stimulation and recording electrodes as illustrated in FIG. 2. A series of SSEP records were then taken subsequent to both tibial and median nerve stimulation in this normal animal. It should be noted here that all surgical procedures and physiological recordings were carried out on anesthetized animals. All animal studies were carried out under protocols approved by the University Animal Care and Use Committee, under strict adherence to University, State, and Federal guidelines for the use of animals in research.\nSubsequently, a dorsal laminectomy surgical procedure was carried out exposing the dorsal (posterior) region of the mid-thoracic spinal cord within the vertebral column, the tough covering of the spinal cord (the dura) incised and removed, and the cord crushed by a standardized technique (constant displacement compression. Blight A R (1991a), Morphometric analysis of a model of spinal cord injury in guinea pigs, with behavioral evidence of delayed secondary pathology, J Neurol Sci 103:156-171; Borgens R B, Shi R, Bohnert D (2002), Behavioral recovery from spinal cord injury following delayed application of polyethylene glycol, J Exp Biol 205:1-12, both incorporated herein by reference.\n[…] However, periodically physiological records were taken to monitor their status—and a final record at around 2 months post injury to confirm the chronic loss of ascending SSEP conduction through the mid-thoracic lesion.\nAfter 8 weeks had elapsed and a “pre-drug application” electrical record obtained, the guinea pigs were lightly sedated and a test compound was administered directly into the stomach by a gastric tube (compounds were undissolved during introduction to the stomach, however, the gastric tube and any remnants of the compounds were flushed into the stomach by secondary introduction of less than 1 ml of distilled water). […]"}, "[3]": {"system": "delayed rectifier current Idr in guinea pig DRG cells", "experiment": "Whole cell patch-clamp recording of isolated delayed rectifier current", "type": "cell-based", "details": "depolarization holding potential; data not shown"}, "[4]": {"system": "fast potassium channels (IA) in guinea pig DRG cells", "experiment": "Whole cell patch-clamp recording of voltage-gated potassium currents (Itotal, fast component IA)", "type": "cell-based", "details": "for effect on fast potassium current (initial peak of Itotal): 5 mM in bath solution; for peak (fast activated) potassium current amplitude after treatment: 5 mM in bath, command potential +30 mV"}, "[5]": {"system": "paralyzed persons with spinal cord injury", "details": "cited from earlier work"}}, "note": "Read-outs that look alike come from different tables or passages of the source."}
{"smiles": "CCOC(=O)Nc1ccncc1", "note": "[ethyl carbamate (2), N-(4-Pyridyl)Ethyl Carbamate]", "values": [{"measurement": "indication of toxicity", "setting": "[1]", "value": "without any indication of toxicity"}, {"measurement": "enhancement of CAP conduction", "setting": "[1]; 100 uM", "value": "enhanced CAP conduction significantly"}, {"measurement": "recovery of CAP relative to 4-AP", "setting": "[1]; 100 uM", "value": "slightly lower recovery of CAP than 4-AP"}, {"measurement": "increase in the amplitude of the recovered CAP", "setting": "[1]; 100 uM", "value": "18.6±8.7", "unit": "%"}, {"measurement": "CAP amplitude after removal of the drug and wash", "setting": "[1]", "value": "fallen back to pre-drug levels"}, {"measurement": "increase in the amplitude of the CAP in example electrical record", "setting": "[1]; FIG. 8 panel A, about 1/2 hour after addition", "value": "~20", "unit": "%"}, {"measurement": "CAP relative to pre-drug level", "setting": "[1]", "value": "increase in CAP above the pre-drug level"}, {"measurement": "concentration producing recovery of CAP conduction (effective/working concentration)", "setting": "[1]", "value": "approximately 100 uM"}, {"measurement": "concentration producing recovery of CAP conduction (effective/working concentration)", "setting": "[1]; listed as carbamate (2)", "value": 100, "unit": "µM"}, {"measurement": "recovery of EP compared to 4-AP", "setting": "[2]; 1 week post injury", "value": "did not meet significance"}, {"measurement": "failures to respond", "setting": "[2]", "value": "no failures to respond"}, {"measurement": "Mean recovered EP (area beneath recovered EP normalized to pre-injury)", "setting": "[2]", "value": 41.5}, {"measurement": "tolerability of gavage", "setting": "[2]", "value": "uneventful"}]}
{"smiles": "Nc1ccncc1CO", "note": "[4-AP-3-MeOH, 4-aminopyridine-3-methanol]", "values": [{"measurement": "inhibition of Idr", "setting": "[3]", "value": "did not significantly inhibit"}, {"measurement": "increase of CAP conduction (not significant)", "setting": "[1]; 0.01 μM, stretch-injured cord, mean±SE, n=5", "value": "6.44±3.8", "unit": "%"}, {"measurement": "increase of CAP conduction", "setting": "[1]; 0.1 μM, stretch-injured cord, mean±SE, n=7", "value": "12.73±3.2", "unit": "%"}, {"measurement": "increase of CAP conduction", "setting": "[1]; 1 μM, stretch-injured cord, mean±SE, n=6", "value": "11.27±4.2", "unit": "%"}, {"measurement": "increase of CAP conduction", "setting": "[1]; 10 μM, stretch-injured cord, mean±SE, n=11", "value": "13.35±5.9", "unit": "%"}, {"measurement": "effect on CAP activation threshold", "setting": "[1]; 100 μM, stimulus intensities 1.85 to 6.5 V", "value": "does not have a significant effect"}, {"measurement": "CAP conduction across stimulus intensities", "setting": "[1]; 100 μM, stimulus intensities 1.85 to 6.5 V, data not shown", "value": "increased CAP conduction at all stimuli intensity levels"}, {"measurement": "increase of CAP conduction", "setting": "[1]; 100 μM, stretch-injured cord, mean±SE, n=6", "value": "21.51±4.5", "unit": "%"}, {"measurement": "increase of CAP conduction (not significant)", "setting": "[1]; 1 mM, stretch-injured cord, mean±SE, n=5", "value": "6.72±8.3", "unit": "%"}, {"measurement": "suppression of CAP conduction", "setting": "[1]; 10 mM, stretch-injured cord, mean±SE, n=5", "value": "18.48±8.1", "unit": "%"}, {"measurement": "effect on axonal response to dual or multiple stimuli", "setting": "[1]; injured spinal cord tissue", "value": "does not have a significant effect"}, {"measurement": "effect on fast potassium current (initial peak of Itotal)", "setting": "[4]", "value": "inhibit the fast potassium currents"}, {"measurement": "peak (fast activated) potassium current amplitude after treatment", "setting": "[4]", "value": "2,434.20±543.4 pA"}, {"measurement": "effect on IA over step voltage commands", "setting": "[4]; step voltage commands from −50 to 40 mV", "value": "suppresses IA"}]}
{"smiles": "Nc1ccncc1", "note": "[4-AP, 4-aminopyridine, reference compound]", "values": [{"measurement": "inhibition of Idr", "setting": "[3]", "value": "did not significantly inhibit"}, {"measurement": "concentration producing recovery of CAP conduction (effective/working concentration)", "setting": "[1]", "value": 100, "unit": "µM"}, {"measurement": "side effects at the concentrations required", "setting": "[5]; human patients", "value": "numerous unwanted side effects"}, {"measurement": "share of treated population with clinically meaningful recoveries of function", "setting": "[5]; paralyzed persons", "value": "about 30%"}, {"measurement": "failures to respond", "setting": "[2]", "value": "Two of the ten animals failed to respond"}, {"measurement": "effective dosage producing improvement in the electrophysiological record", "setting": "[2]", "value": "0.47±0.04", "unit": "mg/kg"}, {"measurement": "Mean recovered EP (area beneath recovered EP normalized to pre-injury)", "setting": "[2]", "value": 40.0}, {"measurement": "tolerability of gavage", "setting": "[2]", "value": "uneventful"}, {"measurement": "effect on fast potassium current (initial peak of Itotal)", "setting": "[4]", "value": "largely blocked"}, {"measurement": "peak (fast activated) potassium current amplitude after treatment", "setting": "[4]", "value": "2,574.91±446.8 pA"}]}
{"smiles": "CC(C)(C)OC(=O)Nc1ccncc1", "note": "[t-butyl carbamate (1), N-(4-Pyridyl) t-Butyl Carbamate]", "values": [{"measurement": "indication of toxicity", "setting": "[1]", "value": "without any indication of toxicity"}, {"measurement": "enhancement of CAP conduction", "setting": "[1]; 1 uM", "value": "enhance CAP conduction significantly"}, {"measurement": "CAP relative to pre-drug level", "setting": "[1]", "value": "increase in CAP above the pre-drug level"}, {"measurement": "concentration producing recovery of CAP conduction (effective/working concentration)", "setting": "[1]", "value": 1, "unit": "µM"}, {"measurement": "increase in recovery CAP amplitude", "setting": "[1]; printed 'at uM', n=5, relative to pre-drug CAP", "value": "15.4±3.4", "unit": "%"}, {"measurement": "recovery of EP compared to 4-AP", "setting": "[2]; 1 week post injury", "value": "significantly enhanced"}, {"measurement": "failures to respond", "setting": "[2]", "value": "no failures to respond"}, {"measurement": "tolerability of gavage", "setting": "[2]", "value": "not tolerated"}]}
{"smiles": "COC(=O)Nc1ccncc1", "note": "[methyl carbamate (3), N-(4-Pyridyl)Methyl Carbamate]", "values": [{"measurement": "enhancement of CAP conduction", "setting": "[1]; 100 uM", "value": "enhanced CAP conduction significantly"}, {"measurement": "increase in the amplitude of the recovered CAP", "setting": "[1]; 100 uM", "value": "30.6±11.7", "unit": "%"}, {"measurement": "CAP amplitude after removal of the drug and wash", "setting": "[1]", "value": "approximate pre-drug levels"}, {"measurement": "concentration producing recovery of CAP conduction (effective/working concentration)", "setting": "[1]; listed as Methyl carbamate (3)", "value": "approximately 100 uM"}, {"measurement": "concentration producing recovery of CAP conduction (effective/working concentration)", "setting": "[1]; listed as carbamate (3)", "value": 100, "unit": "µM"}, {"measurement": "cortical potential (P1) after administration", "setting": "[2]; FIG. 3, 1 hour after gastric tube administration, 1 week post injury", "value": "nearly normal cortical potential"}, {"measurement": "effective dosage producing improvement in the electrophysiological record", "setting": "[2]", "value": "0.37±0.2", "unit": "mg/kg"}, {"measurement": "Mean recovered EP (area beneath recovered EP normalized to pre-injury)", "setting": "[2]", "value": 78.0}, {"measurement": "tolerability of gavage", "setting": "[2]", "value": "uneventful"}]}
